Values joined by “and” are separate entries in the source; they are usually repeats but may differ in a detail not shown here. Equal entries are not always repeated. Toxic doses and inconclusive results are not listed.

The experiment has as its system L1210 leukemia ip in BDF1 mice, survival T/C. Description: NCI In Vivo Anticancer Drug Screen. Data for tumor model L1210 Leukemia (intraperitoneal) in B6D2F1 (BDF1) mice. The note with it: endpoint: mean survival time, higher = longer survival. In short, it runs like this: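 Ratio derived from survival: compound-dosed mice over vehicle-dosed mice, all bearing a transplantable tumor.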

Setting [1] is: dose: 100.0 mg/kg/injection, schedule: Q01DX009 (ip), vehicle: Klucel (hydroxypropylcellulose) (HPC).
Setting [2] is: dose: 100.0 mg/kg/injection, schedule: Q01DX009 (ip), vehicle: saline.
[3] abbreviates: dose: 100.0 mg/kg/injection, schedule: Q04DX003 (ip), vehicle: Klucel (hydroxypropylcellulose) (HPC).
[4] abbreviates: dose: 200.0 mg/kg/injection, schedule: Q01DX009 (ip), vehicle: Klucel (hydroxypropylcellulose) (HPC).
Where [5] appears, read: dose: 200.0 mg/kg/injection, schedule: Q01DX009 (ip), vehicle: saline.
Where [6] appears, read: dose: 200.0 mg/kg/injection, schedule: Q04DX003 (ip), vehicle: Klucel (hydroxypropylcellulose) (HPC).
Where [7] appears, read: dose: 400.0 mg/kg/injection, schedule: Q01DX009 (ip), vehicle: Klucel (hydroxypropylcellulose) (HPC).
Where [8] appears, read: dose: 400.0 mg/kg/injection, schedule: Q01DX009 (ip), vehicle: saline.
Where [9] appears, read: dose: 400.0 mg/kg/injection, schedule: Q04DX003 (ip), vehicle: Klucel (hydroxypropylcellulose) (HPC).
Where [10] appears, read: dose: 100.0 mg/kg/injection, schedule: Q04DX002 (ip), vehicle: saline with Tween-80.

As for `CCOC(=O)c1ccc(=O)[nH]c1`, the T/C reads like this: under setting [1], 102 % of control; under setting [2], 88 % of control; under setting [3], 96 % of control; (dose: 100.0 mg/kg/injection, schedule: Q04DX003 (ip), vehicle: saline) 116 % of control and 100 % of control; under setting [4], 100 % of control; under setting [5], 96 % of control. Besides, the T/C reads like this: under setting [6], 98 % of control; (dose: 200.0 mg/kg/injection, schedule: Q04DX003 (ip), vehicle: saline) 101 % of control and 100 % of control; under setting [7], 95 % of control; under setting [8], 93 % of control; under setting [9], 90 % of control; (dose: 400.0 mg/kg/injection, schedule: Q04DX003 (ip), vehicle: saline) 104 % of control and 96 % of control.
In the case of `C=CCSc1nccnc1C`, the T/C is 100 % of control (dose: 50.0 mg/kg/injection, schedule: Q01DX009 (ip), vehicle: Klucel (hydroxypropylcellulose) (HPC)); 103 % of control under setting [1]; 110 % of control under setting [4].
Take `O=C(O)CN(CCN(CC(=O)O)CC(=O)O)CCN(CC(=O)O)CC(=O)O`: the T/C (dose: 100.0 mg/kg/injection, schedule: Q01DX001 (ip), vehicle: carboxymethylcellulose (CMC)) is 93 % of control and the T/C (dose: 400.0 mg/kg/injection, schedule: Q01DX001 (ip), vehicle: carboxymethylcellulose (CMC)) was 96 % of control.
Take `O=C(/C=C\c1ccc(Cl)c(Cl)c1)/C=C/c1ccc(Cl)c(Cl)c1`: the T/C was 92 % of control under setting [10] and 92 % of control (dose: 400.0 mg/kg/injection, schedule: Q04DX002 (ip), vehicle: saline with Tween-80).
For `CC(C)NC(=O)/C=C/C(=O)O`, the T/C by setting is: under setting [2], 92 % of control; under setting [5], 95 % of control; under setting [8], 92 % of control.
`CC(=O)OCCc1ccccc1C`: the T/C runs as follows: (dose: 100.0 mg/kg/injection, schedule: Q04DX002 (ip), vehicle: Klucel (hydroxypropylcellulose) (HPC)) 112 % of control; (dose: 200.0 mg/kg/injection, schedule: Q04DX002 (ip), vehicle: Klucel (hydroxypropylcellulose) (HPC)) 104 % of control; (dose: 400.0 mg/kg/injection, schedule: Q04DX002 (ip), vehicle: Klucel (hydroxypropylcellulose) (HPC)) 101 % of control.
With `CSc1ccc(NC(=O)Nc2ccc(Cl)cc2[N+](=O)[O-])cc1`, the T/C by setting is: under setting [1], 97 % of control; under setting [4], 91 % of control.
As for `CCCCCCP(=O)(CCCCCC)CCCCCC`, the T/C was 89 % of control (dose: 44.0 mg/kg/injection, schedule: Q01DX Z (ip), vehicle: methylcellulose (MC)); 161 % of control (dose: 55.0 mg/kg/injection, schedule: Q01DX Z (ip), vehicle: methylcellulose (MC)); 93 % of control (dose: 66.0 mg/kg/injection, schedule: Q01DX Z (ip), vehicle: methylcellulose (MC)); 172 % of control (dose: 83.0 mg/kg/injection, schedule: Q01DX Z (ip), vehicle: methylcellulose (MC)); 96 % of control (dose: 100.0 mg/kg/injection, schedule: Q01DX Z (ip), vehicle: methylcellulose (MC)); 97 % of control under setting [3]. Moreover, the T/C under setting [6] was 110 % of control and the T/C under setting [9] is 90 % of control.
Consider `CN(CCCN)CCCN`, for which the T/C by setting is: (dose: 25.0 mg/kg/injection, schedule: Q04DX002 (ip), vehicle: saline) 115 % of control; (dose: 50.0 mg/kg/injection, schedule: Q04DX002 (ip), vehicle: saline) 96 % of control; (dose: 100.0 mg/kg/injection, schedule: Q04DX002 (ip), vehicle: saline) 100 % of control and 104 % of control.
Regarding `ClCCn1nc2c(c1-c1ccc(Cl)cc1)CCc1ccccc1-2`, the T/C reads like this: (dose: 100.0 mg/kg/injection, schedule: Q04DX003 (ip), vehicle: gum acacia) 92 % of control; (dose: 200.0 mg/kg/injection, schedule: Q04DX003 (ip), vehicle: gum acacia) 98 % of control; (dose: 400.0 mg/kg/injection, schedule: Q04DX003 (ip), vehicle: gum acacia) 95 % of control.
In the case of `Cc1ccc(S(=O)(=O)OCC2OC(n3cnc4c(=O)[nH]cnc43)C3OC(C)(C)OC23)cc1` (stereo not given), the T/C is, setting by setting: (dose: 100.0 mg/kg/injection, schedule: Q01DX005 (ip), vehicle: saline) 103 % of control; (dose: 200.0 mg/kg/injection, schedule: Q01DX005 (ip), vehicle: saline) 103 % of control.
In the case of `C/C(=N/N(CCCCN(/N=C(/C)c1ccccc1)c1ccccc1)c1ccccc1)c1ccccc1`, the T/C was 97 % of control (dose: 50.0 mg/kg/injection, schedule: Q01DX001 (ip), vehicle: saline); 95 % of control (dose: 100.0 mg/kg/injection, schedule: Q01DX001 (ip), vehicle: saline); 92 % of control (dose: 200.0 mg/kg/injection, schedule: Q01DX001 (ip), vehicle: saline); 92 % of control (dose: 400.0 mg/kg/injection, schedule: Q01DX001 (ip), vehicle: saline).
For the compound `CN(C)c1ccc(N=Nc2cccc([N+](=O)[O-])c2)cc1`, the T/C runs as follows: under setting [1], 105 % of control; under setting [4], 97 % of control; under setting [7], 100 % of control.
`CNCCC(=O)NCC1C(c2ccccc2)C1c1ccccc1` (stereo not given): the T/C is 97 % of control (dose: 6.25 mg/kg/injection, schedule: Q04DX002 (ip), vehicle: saline with Tween-80); 93 % of control and 96 % of control (dose: 12.5 mg/kg/injection, schedule: Q04DX002 (ip), vehicle: saline with Tween-80); 100 % of control (dose: 25.0 mg/kg/injection, schedule: Q04DX002 (ip), vehicle: saline with Tween-80); 91 % of control (dose: 50.0 mg/kg/injection, schedule: Q04DX002 (ip), vehicle: saline with Tween-80); 93 % of control and 88 % of control under setting [10].
For the compound `CC(=O)c1cc(S(=O)(=O)c2cc(C(C)=O)c(O)cc2OCc2ccccc2)c(OCc2ccccc2)cc1O`, the T/C is, setting by setting: (dose: 100.0 mg/kg/injection, schedule: Q04DX002 (ip), vehicle: carboxymethylcellulose (CMC)) 103 % of control; (dose: 200.0 mg/kg/injection, schedule: Q04DX002 (ip), vehicle: carboxymethylcellulose (CMC)) 92 % of control; (dose: 400.0 mg/kg/injection, schedule: Q04DX002 (ip), vehicle: carboxymethylcellulose (CMC)) 88 % of control.
Regarding `O=C1CC(=O)NC(=S)N1`, the T/C reads like this: (dose: 100.0 mg/kg/injection, schedule: Q04DX003 (ip), vehicle: saline with Tween-80) 101 % of control; (dose: 200.0 mg/kg/injection, schedule: Q04DX003 (ip), vehicle: saline with Tween-80) 93 % of control; (dose: 400.0 mg/kg/injection, schedule: Q04DX003 (ip), vehicle: saline with Tween-80) 93 % of control.
On to `C=CC(=O)O` (tested in a mixture with another compound), for which the T/C (dose: 100.0 mg/kg/injection, schedule: Q01DX Z (ip), vehicle: saline) is 91 % of control.
In the case of `COc1c(C)c(C)c(OC(C)=O)c(C)c1COC(C)=O`, the T/C is, setting by setting: (dose: 25.0 mg/kg/injection, schedule: Q01DX009 (ip), vehicle: saline with Tween-80) 90 % of control; (dose: 50.0 mg/kg/injection, schedule: Q01DX009 (ip), vehicle: saline with Tween-80) 95 % of control; (dose: 100.0 mg/kg/injection, schedule: Q01DX001 (ip), vehicle: saline with Tween-80) 98 % of control; (dose: 100.0 mg/kg/injection, schedule: Q01DX009 (ip), vehicle: saline with Tween-80) 95 % of control and 98 % of control; (dose: 200.0 mg/kg/injection, schedule: Q01DX001 (ip), vehicle: saline with Tween-80) 93 % of control; (dose: 400.0 mg/kg/injection, schedule: Q01DX001 (ip), vehicle: saline with Tween-80) 109 % of control.
Consider `ClCC[N-]CC[N-]CCCl.[Cl][Pt+2][Cl]`, for which the T/C is 113 % of control (dose: 100.0 mg/kg/injection, schedule: Q01DX001 (ip), vehicle: Klucel (hydroxypropylcellulose) (HPC)); 107 % of control (dose: 200.0 mg/kg/injection, schedule: Q01DX001 (ip), vehicle: Klucel (hydroxypropylcellulose) (HPC)); 104 % of control under setting [6]; 88 % of control under setting [9].
For `CCCCS(=O)(=O)OCCCCOS(=O)(=O)CCCC`, the T/C reads like this: (dose: 240.0 mg/kg/injection, schedule: Q01DX Z (ip), vehicle: saline) 100 % of control; (dose: 360.0 mg/kg/injection, schedule: Q01DX Z (ip), vehicle: saline) 115 % of control; (dose: 810.0 mg/kg/injection, schedule: Q01DX Z (ip), vehicle: saline) 90 % of control.

Values taken from PubChem BioAssay AID248 (DTP/NCI, 2004).
